Laboratory results: patent US8901313B2, “6,5-heterocyclic propargylic alcohol compounds and uses therefor” (Genentech, Inc., priority 2011, dated 2014)
Read-outs that look alike come from different tables or passages of the source.

Assays:
[1] = test system: p52 (NF-kB2) nuclear translocation in HeLa cells; experiment: NIK p52 Translocation Assay (non-classical NF-kB signaling); type: cell-based; conditions: Homo sapiens
Procedure, shortened: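 HeLa cells in 10% FBS medium were exposed to compound (0.2% DMSO final) and stimulated with 100 ng/mL anti-lymphotoxin β receptor antibody for 5 h. Fixed cells were immunostained for p52 with DRAQ5 counterstain and imaged by high-content imaging. IC50 from nuclear/cytoplasmic p52 signal ratio vs concentration.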

[2] = test system: NF-kB signaling through NIK in human embryonic kidney 293 cells; experiment: 293-NIK NF-kB-Luciferase reporter assay; type: cell-based
Procedure, shortened: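 HEK293 cells stably carrying tetracycline-inducible NIK plus NF-kB (ELAM-1 element) firefly luciferase and constitutive TK-Renilla viability reporter. Compounds (0.2% DMSO) incubated 24 h with 1 ug/mL doxycycline; Dual Glo luminescence read, IC50 from firefly signal.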

[3] = molecular target: T1, nuclear factor-kappa B (NF-kB)-inducing kinase (NIK) (Homo sapiens, UniProt Q99558); experiment: NIK Enzyme Inhibition Assay (Transcreener ADP assay); type: biochemical
T1 construct: made in house; host or cells: baculovirus-infected insect cells
T1 sequence (Q99558 whole entry): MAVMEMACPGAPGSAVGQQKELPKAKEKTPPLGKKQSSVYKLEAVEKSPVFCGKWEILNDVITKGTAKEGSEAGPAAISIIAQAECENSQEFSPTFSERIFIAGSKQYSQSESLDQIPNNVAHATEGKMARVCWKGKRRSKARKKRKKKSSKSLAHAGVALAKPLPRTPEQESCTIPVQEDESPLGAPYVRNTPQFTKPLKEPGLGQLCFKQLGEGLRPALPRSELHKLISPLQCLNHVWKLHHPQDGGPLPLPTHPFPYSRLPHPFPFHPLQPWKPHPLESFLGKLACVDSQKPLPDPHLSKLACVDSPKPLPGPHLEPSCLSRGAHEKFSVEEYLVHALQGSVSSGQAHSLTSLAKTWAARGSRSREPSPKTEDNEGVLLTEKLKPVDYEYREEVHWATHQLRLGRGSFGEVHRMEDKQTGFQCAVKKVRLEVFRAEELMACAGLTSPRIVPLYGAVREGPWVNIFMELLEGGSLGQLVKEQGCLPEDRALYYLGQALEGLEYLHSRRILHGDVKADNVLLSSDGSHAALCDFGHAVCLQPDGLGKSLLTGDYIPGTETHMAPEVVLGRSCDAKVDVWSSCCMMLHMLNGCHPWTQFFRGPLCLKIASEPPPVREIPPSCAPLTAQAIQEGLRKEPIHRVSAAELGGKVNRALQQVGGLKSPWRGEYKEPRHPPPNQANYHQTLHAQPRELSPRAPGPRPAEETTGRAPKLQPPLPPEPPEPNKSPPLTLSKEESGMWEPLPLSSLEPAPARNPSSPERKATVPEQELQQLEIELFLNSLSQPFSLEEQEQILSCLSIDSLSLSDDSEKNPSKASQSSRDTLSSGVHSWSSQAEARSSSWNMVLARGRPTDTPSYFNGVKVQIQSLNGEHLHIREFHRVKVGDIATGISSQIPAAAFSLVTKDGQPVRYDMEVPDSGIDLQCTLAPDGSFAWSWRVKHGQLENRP

[4] = test system: REL-A (p65) nuclear translocation in HeLa cells; experiment: NIK RelA Translocation Assay (classical NF-kB signaling); type: cell-based; conditions: Homo sapiens
Experimental: (2) A second set of cell assay was used to define the selectivity of NIK inhibitors toward inhibition of classical vs. non-classical NF-kB signaling and rely on quantification of the nuclear translocation of p52 (NF-kB2) and REL-A (p65) using high content cellular imaging. For the p52 (non-classical NF-kB signaling) nuclear translocation assay, HeLa cells were treated with different concentrations of compounds (0.2% DMSO final) in medium containing 10% fetal bovine serum and then stimulated with 100 ng/mL of an anti-lymphotoxin beta receptor antibody (R&D Systems) for 5 hours. In the REL-A nuclear translocation assay, HeLa cells were incubated with compounds (0.2% DMSO final) for 4.5 hours in medium containing 10% fetal bovine serum before stimulating them with 10 ng/mL tumor necrosis factor (TNF)-α (R&D Systems) for 30 minutes. Cells were fixed with 4% paraformaldehyde, permeabilized by adding 0.1% Triton X-100 in phosphate buffered saline, and then incubated with either 2 ug/mL anti-p52 antibody (Millipore) or 400 ng/mL anti-REL-A (p65) antibody (Santa Cruz Biotechnology). Finally, the cells were incubated with an Alexa488-labeled secondary antibody (Invitrogen) and DRAQ5 DNA stain (Biostatus). Imaging was carried out using an Opera reader (Perkin Elmer) and data are analyzed with the aid of Acapella software (Perkin Elmer). The p52 or REL-A translocation into the nucleus was quantified by the ratio of the nuclear to cytoplasmic signal intensity. The concentration of inhibitor required for 50% inhibition (IC50 values) in these cell assays were derived from the plots of signal vs. inhibitor concentration. The compounds in listed in Table 1 have the corresponding inhibitory value (IC50 in micromolar) for NIK p52 Translocation Assay (values for compounds are presented in the same order as found in Table 1, and “na” means the data for this assay is to be determined): 0.326, 0.33, na, na, na, 0.218, 0.07, na, na, na, 0.129, 7.6, 0.077, 3.4, na, 0.518, na, 0.059, 0.514, 0.127, na, na, 0.010, na, na, 0.313, 0.275, na, 0.0727, na, na, na, na, na, na, 0.194, na, 6.4, 0.22, 0.346, na, na, na and na, na, na, na, na, na, 0.447, na, 0.089, 0.479, 0.489, 0.243, 0.747, 1, na, 1.9, 0.552, 2.1, na. na, na, na, na and na.
The compounds in listed in Table 1 has the corresponding inhibitory value (IC50 in micromolar) for NIK RelA Translocation Assay (values for compounds are presented in the same order as found in Table 1): 0.326, 0.33, na, na, na, 0.218, 0.07, na, na, na, na, na, 0.129, 7.6, 0.077, 3.4, na, 0.518, na, 0.059, 0.514, 0.127, na, na, 0.010, na, na, 0.313, 0.275, na, na, 0.0727, na, na, na, na, na, na, 0.194, na, 6.4, 0.22, 0.346, na, na, na, na, na, na, na, na, na, 0.447, na, 0.089, 0.479, 0.489, 0.243, 0.747, 1, na, 1.9, 0.552, 2.1, na, na, na, na, na and na.

[5] = test system: human embryonic kidney 293 cells; experiment: 293-NIK TK Renilla Luciferase reporter (general measure of cell viability); type: cell-based
Excerpt: (1) The first assay was used to profile whether a test compound can inhibit the NF-kB signally through NIK inhibition without affecting cell viability. In this assay, human embryonic kidney 293 cells was stably transfected with a tetracycline-inducible NIK DNA construct containing a cytomegalovirus promoter plus two reporter DNA constructs. One reporter encoded firefly luciferase under the control of three repeats of an NF-kB response element from the ELAM-1 gene and reflects the level of NIK activity in the cells, whereas the other reporter constitutively expressed Renilla luciferase under the control of the herpes simplex virus thymidine kinase promoter and served as a general measure of cell viability. Cells were incubated with different concentrations of compounds (0.2% DMSO final) in medium containing 1 ug/mL doxycycline and 10% tet-system approved fetal bovine serum (Clontech) for 24 hours, after which the reporters' signals were detected using the Dual Glo luciferase detection system (Promega) according to the vendor's protocol. The compounds listed in Table 1 have the corresponding inhibitory value (IC50 in micromolar) for 293-NIK NF-kB-Luciferase activity (values for compounds are presented in the same order as found in Table 1): na, 0.059, na, na, na, 0.105, 0.027, na, 20, 1.2, na, 1.8, 0.0231, 0.879, 0.0361, 0.582, na, 0.142, na, 0.403, 0.059, 0.0331, na, na, 0.0573, 1.5, na, na, 0.0722, na, na, 0.589, 12.7, 3.7, 14.9, na, 0.707, 1, 0.0311, 0.332, 0.309, 0.0142, 0.051, 2.8, 0.129, na, na, 1.5, na, na, na, 1.3, 0.062, 20, 0.31, 0.104, 0.091, 0.037, 0.085, 0.279, na, 0.305, 0.064, 0.332, 0.133, 0.168, 0.217, 0.553, na and na.
The compounds in listed in Table 1 have the corresponding inhibitory value (IC50 in micromolar) for 293-NIK TK Renilla Luciferase activity: (values for compounds are presented in the same order as found in Table 1): 6.4, 3.6, 20, na, 1.6, 9.3, 18.5, na, na, 2.6, na, na, na, na, na, na, na, na, na, na, na, na, na, na, na, na, na, na, na, na, na, na, na, na, na, na, na, na, na, na, na, na, na, na, na, na, na, >20, na, na, na, 20, >20, 17, 1.3, 15.6, 0.967, 2.7, 11.2, 5.1, na, 20, 20, 20, 20, 20, 17.6, 20, na and na.

[6] = HeLa, comparative data, Tables 16A-16D, read-out: NIK p52 Translocation (IC50)
[7] = HEK293, comparative data, Tables 16A-16D, read-out: 293-NIK NF-kB-Luciferase (IC50)
[8] = comparative data, Tables 16A-16D, read-out: NIK ADP (Ki)
[9] = HeLa, comparative data, Tables 16A-16D, read-out: NIK RelA Translocation (IC50)
[10] = HEK293, comparative data, Tables 16A-16D, read-out: 293-NIK TK Renilla Luciferase (IC50)
[11] = HeLa cells, 100 ng/mL anti-lymphotoxin beta receptor antibody, 5 hours, read-out: inhibitory value (IC50) for NIK p52 Translocation Assay
[12] = HEK293, 293 cells with tetracycline-inducible NIK, 1 ug/mL doxycycline, 24 hours, read-out: inhibitory value (IC50) for 293-NIK NF-kB-Luciferase activity
[13] = purified NIK 0.2-1 nM, 10 uM ATP, fluorescence polarization, Morrison's quadratic equation, read-out: inhibitory value (Ki) for NIK
[14] = HeLa cells, compounds 4.5 hours, 10 ng/mL TNF-α 30 minutes, read-out: inhibitory value (IC50) for NIK RelA Translocation Assay
[15] = HEK293, 293 cells, constitutive Renilla luciferase, 24 hours, read-out: inhibitory value (IC50) for 293-NIK TK Renilla Luciferase activity

SMILES | IC50 [1, 6] [nM] | IC50 [2, 7] [nM] | Ki [3, 8] [nM] | IC50 [4, 9] [nM] | IC50 [5, 10] [nM] | IC50 [1, 11] [nM] | IC50 [2, 12] [nM] | Ki [3, 13] [nM] | IC50 [4, 14] [nM] | IC50 [5, 15] [nM]
CN(C)C(=O)c1nn(-c2ccnc(N)n2)c2cc(C#CC(C)(O)c3ncco3)ccc12 (stereo not drawn) [1-(2-aminopyrimidin-4-yl)-6-(3-hydroxy-3-(oxazol-2-yl)but-1-ynyl)-N,N-dimethyl-1H-indazole-3-carboxamide] | 346 | 51 | 0.2 | > 20000 | 583 |  |  |  |  | 
CC(O)(C#Cc1ccc2ncn(-c3ccnc(N)n3)c2c1)c1nccs1 (stereo not drawn) [4-(1-(2-aminopyrimidin-4-yl)-1H-benzo[d]imidazol-6-yl)-2-(thiazol-2-yl)but-3-yn-2-ol] | 70 | 27 | 0.3 | > 20000 | 4900 |  |  |  |  | 
CC(O)(C#Cc1ccc2cnn(-c3ccnc(N)n3)c2c1)c1ncco1 (stereo not drawn) [4-(1-(2-aminopyrimidin-4-yl)-1H-indazol-6-yl)-2-(oxazol-2-yl)but-3-yn-2-ol] | 77 | 36 | 0.3 | > 20000 | 514 |  |  |  |  | 
Cc1nn(-c2ccnc(N)n2)c2cc(C#CC(C)(O)c3nccs3)ccc12 (stereo not drawn) [4-(1-(2-aminopyrimidin-4-yl)-3-methyl-1H-indazol-6-yl)-2-(thiazol-2-yl)but-3-yn-2-ol] | 222 | 11 | 0.1 | > 20000 | 1200 |  |  |  |  | 
CC(O)(C#Cc1ccc2c(c1)N(c1ccnc(N)n1)CC2)c1nccs1 (stereo not drawn) [4-(1-(2-aminopyrimidin-4-yl)indolin-6-yl)-2-(thiazol-2-yl)but-3-yn-2-ol, reference compound] | 862 | 126 | 2.7 | > 20000 | 3900 |  |  |  |  | 
CC(O)(C#Cc1ccc2cnn(-c3nc(N)ncc3Cl)c2c1)c1nccs1 (stereo not drawn) [Example T1-6, 4-(1-(2-amino-5-chloro-pyrimidin-4-yl)-1H-indazol-6-yl)-2-(thiazol-2-yl)but-3-yn-2-ol] |  |  |  |  |  | 218 | 105 | 0.14 | 218 | 9300
CC(O)(C#Cc1ccc2ncn(-c3ccnc(N)n3)c2c1)c1nccs1 (stereo not drawn) [Example T1-7, 4-(1-(2-aminopyrimidin-4-yl)-1H-benzo[d]imidazol-6-yl)-2-(thiazol-2-yl)but-3-yn-2-ol] |  |  |  |  |  | 70 | 27 | 0.28 | 70 | 18500
Cc1nc2ccc(C#CC(C)(O)c3nccs3)cc2n1-c1ncnc(N)n1 (stereo not drawn) [Example T1-53, 4-(1-(4-amino-1,3,5-triazin-2-yl)-2-methyl-1H-benzo[d]imidazol-6-yl)-2-(thiazol-2-yl)but-3-yn-2-ol] |  |  |  |  |  | 479 | 62 | 0.4 | 447 | > 20000
Cc1nn(-c2ccnc(N)n2)c2cc(C#C[C@@](C)(O)c3nccs3)c(F)cc12 [Example T1-55, (R)-4-(1-(2-aminopyrimidin-4-yl)-5-fluoro-3-methyl-1H-indazol-6-yl)-2-(thiazol-2-yl) but-3-yn-2-ol] |  |  |  |  |  | 243 | 310 | 0.2 | 89 | 1300
Cc1cnc(C(C)(O)C#Cc2ccc3c(C)nn(-c4ccnc(N)n4)c3c2)s1 (stereo not drawn) [Example T1-56, 4-(1-(2-aminopyrimidin-4-yl)-3-methyl-1H-indazol-6-yl)-2-(5-methylthiazol-2-yl)but-3-yn-2-ol] |  |  |  |  |  | 747 | 104 | 1.6 | 479 | 15600
Cc1nc(C(C)(O)C#Cc2ccc3c(C)nn(-c4ccnc(N)n4)c3c2)no1 (stereo not drawn) [Example T1-57, 4-(1-(2-aminopyrimidin-4-yl)-3-methyl-1H-indazol-6-yl)-2-(5-methyl-1,2,4-oxadiazol-3-yl)but-3-yn-2-ol] |  |  |  |  |  | 1000 | 91 | 2 | 489 | 967
Cc1cc(C(C)(O)C#Cc2ccc3c(C(=O)N(C)C)nn(-c4ccnc(N)n4)c3c2)no1 (stereo not drawn) [Example T1-59, 1-(2-aminopyrimidin-4-yl)-6-(3-hydroxy-3-(5-methyl-isoxazol-3-yl)but-1-ynyl)-N,N-dimethyl-1H-indazole-3-carboxamide] |  |  |  |  |  | 1900 | 85 | 0.49 | 747 | 11200
